The values below come from patent US20060089395A1, “Nf-kb activation inhibitors” (priority 2002, published 2006).

The test has as its system NF-κ B. The test can be described thus: Inhibitory activity of NF-κ B activation, luciferase reporter assay in HepG2 under TNF-α stimulation. The format is cell-based, human. The procedure:
Using a transfection reagent(Effectene; QIAGEN), the human hepatoma cell strain HepG2 was transfected with a plasmid(pNF κ B-Luc Reporter Plasmid; […]) which is integrated with an oligonucleotide having five tandem copies of NF-κ B binding sequences([…]) on a upstream region of firefly luciferase gene(Luc) according to the QIAGEN's protocol, and the cells were incubated for 6 to 24 hours. After the addition of TNF-α (40 ng/ml) in the presence or absence of a test compound, the cells were incubated for 4 hours, and intracellular luciferase activity was measured by using PicaGene LT (TOYO INK MFG Co., Ltd.) and a chemical luminescence measurement apparatus ([…]luor Plus; TECAN). The inhibitory ratio was measured as a ratio relative to the value of a luciferase activity in the absence of the test compound.
In general terms: In a reporter assay the amount or activity of a reporter protein is the signal.

The mark [1] stands for this setting: Homo sapiens, 1 μg/mL, HepG2, TNF-α (40 ng/ml), 4 hours, read-out: Inhibitory Ratio of NF-κ B Activation(%) Drug Concentration 1 μg/mL.
[2] abbreviates: Homo sapiens, 10 μg/mL, HepG2, TNF-α (40 ng/ml), 4 hours, read-out: Inhibitory Ratio of NF-κ B Activation(%) Drug Concentration 10 μg/mL.
[3] abbreviates: 1 μg/mL, HepG2, TNF-α (40 ng/ml), 4 hours.
The mark [4] stands for this setting: 10 μg/mL, HepG2, TNF-α (40 ng/ml), 4 hours.

Like-named read-outs stand apart in the source and are kept apart here.

For the molecule `O=C(Nc1cc(C(F)(F)F)ccc1C(F)(F)F)c1cc(Cl)ccc1O` [Compound No.81, N-[2,5-bis(trifluoromethyl)phenyl]-5-chloro-2-hydroxybenzamide], the inhibition at 0.1 µg/mL (Homo sapiens, HepG2, 4 h, 0.1 μg/ml, comparison table, reporter assay, read-out: Inhibitory Ratio of NF-κB Activation (%) 0.1 μg/ml) is 27%. In addition, the inhibition at 1 µg/mL is 95% (Homo sapiens, HepG2, 4 h, 1 μg/ml, comparison table, reporter assay, read-out: Inhibitory Ratio of NF-κB Activation (%) 1 μg/ml) and 95% under setting [1]. The inhibition at 10 µg/mL worked out at 96.3% (Homo sapiens, HepG2, 4 h, 10 μg/ml, comparison table, reporter assay, read-out: Inhibitory Ratio of NF-κB Activation (%) 10 μg/ml) and 96.3% under setting [2].
`O=C(Nc1cc(C(F)(F)F)cc(C(F)(F)F)c1)c1cc(I)ccc1O` [Compound No. 7, N-[3,5-bis(trifluoromethyl)phenyl]-2-hydroxy-5-iodobenzamide]: the inhibition at 1 µg/mL under setting [1] was determined as 86.6%. Further, the inhibition at 10 µg/mL under setting [2] was 85.4%.
In the same order, the values of `O=C(Nc1cc(C(F)(F)F)cc(C(F)(F)F)c1)c1cc([N+](=O)[O-])ccc1O` [Compound No. 8, N-[3,5-bis(trifluoromethyl)phenyl]-2-hydroxy-5-nitrobenzamide] are 92% and 99.2%.
For `CC(=O)c1ccc(O)c(C(=O)Nc2cc(C(F)(F)F)cc(C(F)(F)F)c2)c1` [Compound No. 12, 5-acetyl-N-[3,5-bis(trifluoromethyl)phenyl]-2-hydroxybenzamide], in that order: 86.3% and 99.2%.
`CC(O)c1ccc(O)c(C(=O)Nc2cc(C(F)(F)F)cc(C(F)(F)F)c2)c1` (stereo not drawn) [Compound No. 13]: the “Inhibitory Ratio of NF-κ B Activation(%) Drug Concentration 1 μg/mL” value under setting [3] was determined as 76.8%. Moreover, the “Inhibitory Ratio of NF-κ B Activation(%) Drug Concentration 10 μg/mL” value under setting [4] was determined as 96.0%.
For `CON=C(C)c1ccc(O)c(C(=O)Nc2cc(C(F)(F)F)cc(C(F)(F)F)c2)c1` [Compound No. 14], in that order: 94.7% and 98.3%.
On to `CC(=NOCc1ccccc1)c1ccc(O)c(C(=O)Nc2cc(C(F)(F)F)cc(C(F)(F)F)c2)c1` [Compound No. 15], for which, under setting [3], the “Inhibitory Ratio of NF-κ B Activation(%) Drug Concentration 1 μg/mL” value turned out to be 94.5%. Besides, under setting [4], the “Inhibitory Ratio of NF-κ B Activation(%) Drug Concentration 10 μg/mL” value was 99.2%.
Take `N#CC(C#N)=Cc1ccc(O)c(C(=O)Nc2cc(C(F)(F)F)cc(C(F)(F)F)c2)c1` [Compound No. 16, N-[3,5-Bis(trifluoromethyl)phenyl]-5-(2,2-dicyanoethen-1-yl)-2-hydroxybenzamide]: the inhibition at 1 µg/mL under setting [1] was determined as 42.7%. Moreover, the inhibition at 10 µg/mL under setting [2] amounted to 99.4%.
`COC(=O)C(C#N)=Cc1ccc(O)c(C(=O)Nc2cc(C(F)(F)F)cc(C(F)(F)F)c2)c1` [Compound No. 17, 3-({N-[3,5-bis(trifluoromethyl)phenyl]carbamoyl}-4-hydroxyphenyl)-2-cyanoacrylic acid methyl ester]: the “Inhibitory Ratio of NF-κ B Activation(%) Drug Concentration 1 μg/mL” value under setting [3] was determined as 74.9%. In addition, the “Inhibitory Ratio of NF-κ B Activation(%) Drug Concentration 10 μg/mL” value under setting [4] is given as 99.1%.
In the same order, the values of `N#CC(=Cc1ccc(O)c(C(=O)Nc2cc(C(F)(F)F)cc(C(F)(F)F)c2)c1)C(=O)O` [Compound No. 18] are 59.7% and 98.5%.
`C[Si](C)(C)C#Cc1ccc(O)c(C(=O)Nc2cc(C(F)(F)F)cc(C(F)(F)F)c2)c1` [Compound No. 20, N-[3,5-bis(trifluoromethyl)phenyl]-2-hydroxy-5-[(trimethylsilyl)ethynyl]benzamide]: the inhibition at 1 µg/mL under setting [1] was determined as 91.1%. Under setting [2], the inhibition at 10 µg/mL came to 94.9%.
Consider `C#Cc1ccc(O)c(C(=O)Nc2cc(C(F)(F)F)cc(C(F)(F)F)c2)c1` [Compound No. 21], for which, under setting [3], the “Inhibitory Ratio of NF-κ B Activation(%) Drug Concentration 1 μg/mL” value is reported as 53.3%. In addition, the “Inhibitory Ratio of NF-κ B Activation(%) Drug Concentration 10 μg/mL” value under setting [4] is listed as 90.1%.
With `O=C(Nc1cc(C(F)(F)F)cc(C(F)(F)F)c1)c1cc(C(F)(F)C(F)(F)F)ccc1O` [Compound No. 26], the “Inhibitory Ratio of NF-κ B Activation(%) Drug Concentration 1 μg/mL” value under setting [3] is reported as 93.3%. For the same molecule, the “Inhibitory Ratio of NF-κ B Activation(%) Drug Concentration 10 μg/mL” value under setting [4] is 95.4%.
In the same order, the values of `O=C(Nc1cc(C(F)(F)F)cc(C(F)(F)F)c1)c1cc(-c2cccs2)ccc1O` [Compound No. 28] are 79.5% and 97.8%.
As for `Cc1nc(-c2ccc(O)c(C(=O)Nc3cc(C(F)(F)F)cc(C(F)(F)F)c3)c2)cs1` [Compound No. 30, N-[3,5-Bis(trifluoromethyl)phenyl]-2-hydroxy-5-(2-methylthiazol-4-yl)benzamide], the inhibition at 1 µg/mL under setting [1] was determined as 82.1%. For the same molecule, the inhibition at 10 µg/mL under setting [2] is 95.3%.
As for `O=C(Nc1cc(C(F)(F)F)cc(C(F)(F)F)c1)c1cc(-c2ccccn2)ccc1O` [Compound No. 32, N-[3,5-Bis(trifluoromethyl)phenyl]-2-hydroxy-5-(pyridin-2-yl)benzamide], the inhibition at 1 µg/mL under setting [1] stood at 90.4%. Further, under setting [2], the inhibition at 10 µg/mL was 99%.
Take `COc1ccc(O)c(C(=O)Nc2cc(C(F)(F)F)cc(C(F)(F)F)c2)c1` [Compound No. 33]: the “Inhibitory Ratio of NF-κ B Activation(%) Drug Concentration 1 μg/mL” value under setting [3] came to 30.7%. For the same molecule, under setting [4], the “Inhibitory Ratio of NF-κ B Activation(%) Drug Concentration 10 μg/mL” value is recorded as 97.0%.
Take `CC(C)C(=O)c1ccc(O)c(C(=O)Nc2cc(C(F)(F)F)cc(C(F)(F)F)c2)c1` [Compound No. 34, N-[3,5-Bis(trifluoromethyl)phenyl]-2-hydroxy-5-isobutyrylbenzamide]: the inhibition at 1 µg/mL under setting [1] was found to be 90.7%. The inhibition at 10 µg/mL under setting [2] turned out to be 98.7%.
In the same order, the values of `COC(=O)c1ccc(O)c(C(=O)Nc2cc(C(F)(F)F)cc(C(F)(F)F)c2)c1` [Compound No. 35, N-[3,5-bis(trifluoromethyl)phenyl]-4-hydroxyisophthalamic acid methyl ester] are 88.2% and 96.4%.
Turning to `O=C(Nc1cc(C(F)(F)F)cc(C(F)(F)F)c1)c1ccc(O)c(C(=O)Nc2cc(C(F)(F)F)cc(C(F)(F)F)c2)c1` [Compound No. 37], the “Inhibitory Ratio of NF-κ B Activation(%) Drug Concentration 10 μg/mL” value under setting [4] is 94.5%.
In the case of `CN(C)C(=O)c1ccc(O)c(C(=O)Nc2cc(C(F)(F)F)cc(C(F)(F)F)c2)c1` [Compound No. 38, N^3-[3,5-bis(trifluoromethyl)phenyl]-4-hydroxy-N^1,N^1-dimethylisophthalamide], the inhibition at 1 µg/mL under setting [1] was determined as 16%. Also, the inhibition at 10 µg/mL under setting [2] was 87.1%.
In the same order, the values of `O=C(Nc1cc(C(F)(F)F)cc(C(F)(F)F)c1)c1cc(C(=O)N2CCCCC2)ccc1O` [Compound No. 39, N-[3,5-Bis(trifluoromethyl)phenyl]-2-hydroxy-5-(piperidine-1-carbonyl)benzamide] are 23.7% and 82.2%.
As to `CN(C)S(=O)(=O)c1ccc(O)c(C(=O)Nc2cc(C(F)(F)F)cc(C(F)(F)F)c2)c1` [Compound No. 41, N-[3,5-Bis(trifluoromethyl)phenyl]-5-dimethylsufamoyl-2-hydroxybenzamide], the “Inhibitory Ratio of NF-κ B Activation(%) Drug Concentration 1 μg/mL” value under setting [3] is listed as 42.2%. Further, under setting [4], the “Inhibitory Ratio of NF-κ B Activation(%) Drug Concentration 10 μg/mL” value stood at 95.9%.
Take `O=C(Nc1cc(C(F)(F)F)cc(C(F)(F)F)c1)c1cc(S(=O)(=O)n2cccc2)ccc1O` [Compound No. 42, N-[3,5-Bis(trifluoromethyl)phenyl]-2-hydroxy-5-(pyrrole-1-sulfonyl)benzamide]: under setting [1], the inhibition at 1 µg/mL worked out at 84.4%. Also, the inhibition at 10 µg/mL under setting [2] stood at 98.1%.
Regarding `CN(C)c1ccc(O)c(C(=O)Nc2cc(C(F)(F)F)cc(C(F)(F)F)c2)c1` [Compound No. 44], the “Inhibitory Ratio of NF-κ B Activation(%) Drug Concentration 10 μg/mL” value under setting [4] was determined as 67.5%.
